Test results published in paper PMC8748404 (Angewandte Chemie (International ed. in English), 2021).
pIC50, pKi: −log10 of the molar value.

What was measured:
[1] = target: HaloTag-eDHFR (Escherichia coli, UniProt P0ABQ4); experiment: DNA-based ligand displacement screen of LOPAC library with DNA-linked TMP probe; format: binding, E. coli; conditions: LOPAC1280 screen against HaloTag-eDHFR
[2] = target: E. coli dihydrofolate reductase (eDHFR) (Escherichia coli, UniProt P0ABQ4); experiment: inhibition assays of eDHFR; format: biochemical; conditions: eDHFR inhibition assay
[3] = target: T1, human DHFR (Homo sapiens, UniProt P00374); experiment: inhibition of human DHFR; format: biochemical
T1 sequence (P00374 1-187): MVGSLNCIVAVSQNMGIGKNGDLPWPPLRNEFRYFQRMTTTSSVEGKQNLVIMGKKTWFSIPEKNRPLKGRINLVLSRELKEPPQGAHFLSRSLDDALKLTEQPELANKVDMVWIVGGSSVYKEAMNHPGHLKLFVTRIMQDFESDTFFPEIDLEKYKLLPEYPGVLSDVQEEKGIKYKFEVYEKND

[4] = target: eDHFR (Escherichia coli, UniProt P0ABQ4); experiment: FP assay, displacement of fluorescein-labeled methotrexate; format: binding, E. coli; conditions: displacement of fluorescein-labeled MTX from eDHFR
[5] = tested on: BRD7/9; experiment: concurrent DNA-based displacement screening, DNA-bromosporine probe; format: binding; conditions: screen of 1000 compounds, TargetMol Bioactive Compound Library
[6] = tested on: PB1-BD2, PB1-BD4, PB1-BD5, BRD7 and BRD9; experiment: concurrent screening against five bromodomain proteins; format: binding; conditions: five bromodomain proteins screened concurrently
[7] = target: PB1-BD2/4/5; experiment: DNA-based ligand displacement assay, IC50 determination of hit compounds; format: binding

Chain of eDHFR (P0ABQ4 whole entry): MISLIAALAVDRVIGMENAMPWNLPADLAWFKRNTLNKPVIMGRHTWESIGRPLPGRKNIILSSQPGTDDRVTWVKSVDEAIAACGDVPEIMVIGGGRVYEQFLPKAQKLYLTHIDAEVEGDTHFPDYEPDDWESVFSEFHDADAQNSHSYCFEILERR
Chain of E. coli dihydrofolate reductase (eDHFR) (P0ABQ4 whole entry): as above
Chain of HaloTag-eDHFR (P0ABQ4 whole entry): as above

displacement of DNA-bromosporine probe [5]	binding to respective bromodomains (IC50 determination) [7]	SMILES	recovery of DNA-linked probe [1]	pKi [2]	inhibition of human DHFR [3]	pIC50 [4]	selectivity in concurrent screen [6]
–	–	CN(CCOc1ccc(C[C@H](Nc2ccccc2C(=O)c2ccccc2)C(=O)O)cc1)c1ccccn1 [GW1929]	low recovery	6.39	modest inhibition	5.10	–
significantly displaced	–	CN1C(=O)c2sccc2N(C)c2nc(Nc3ccc(S(N)(=O)=O)cc3)ncc21 [XMU-MP-1]	–	–	–	–	selectivity towards BRD7/9 over PB1-BD2/4/5
–	potent binding	Cc1cc(C)c(Nc2ccnc(Nc3ccc(C#N)cc3)n2)c(C)c1 [dapivirine]	–	–	–	–	selectivity for PB1-BD4
